Results taken from patent US9499550B2 (BRISTOL-MYERS SQUIBB COMPANY, priority 2012, dated 2016).
Read-outs that look alike come from different tables or passages of the source.

Key:
[1] = system: HCV genotype 1a (H77 strain) replicon in HUH-7 cells; test: HCV replicon luciferase reporter assay, genotype 1a; type: cell-based; settings: Hepatitis C virus, Huh-7, 72 h, 3 days incubation
Procedure, shortened: (§1)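 Replicon inhibition for both genotypes was measured as Renilla luciferase signal (EnduRen, 7.5 μM final, 2 h) after 3-day, 37° C exposure of replicon-bearing HUH-7 cells in 4% FCS DMEM, 0.5% DMSO. The 1b construct carries S1179I; the 1a H77 construct carries P1496L and S2204I. Twenty-point, 3-fold dilutions were fitted four-parametrically for EC50, and CC50 was taken from multiplexed Cell Titer-Blue.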

[2] = system: HCV genotype 1b (Con1) replicon in HUH-7 cells; test: HCV replicon luciferase reporter assay, genotype 1b; type: cell-based; settings: Hepatitis C virus, Huh-7, 72 h, 3 days incubation
Procedure, shortened: as §1

[3] = HCV genotype 1a replicon luciferase, read-out: LE_1a (EC50, range)
[4] = HCV genotype 1b replicon luciferase, read-out: LE_1b (EC50, range)
[5] = HCV genotype 1a replicon luciferase assay, range class, read-out: LE_1a (EC50, range)
[6] = HCV genotype 1b replicon luciferase assay, range class, read-out: LE_1b (EC50, range)
[7] = GETYPE1A, HCV genotype 1a replicon luciferase, read-out: LE_1a (EC50)
[8] = GETYPE1A, HCV genotype 1a replicon luciferase, read-out: LE_1a (EC50, range)
[9] = GETYPE1B, HCV genotype 1b replicon luciferase, read-out: LE_1b (EC50)
[10] = GETYPE1B, HCV genotype 1b replicon luciferase, read-out: LE_1b (EC50, range)

| SMILES | EC50 [1, 3] [nM] | EC50 [2, 4] [nM] | further results |
| --- | --- | --- | --- |
| COc1cc2nc(C(F)(F)F)c(OC)nc2cc1O[C@@H]1C[C@H]2C(=O)N[C@]3(C(=O)NS(=O)(=O)C4(C)CC4)C[C@H]3/C=C\CC[C@H](C)C[C@@H](C)[C@H](NC(=O)OC(C)(C)C)C(=O)N2C1 [Compound 4352, tert-butyl ((2R,6S,7R,9S,13aS,14aR,16aS,Z)-2-((3,7-dimethoxy-2-(trifluoromethyl)quinoxalin-6-yl)oxy)-7,9-dimethyl-14a-(((1-methylcyclopropyl)sulfonyl)carbamoyl)-5,16-dioxo-1,2,3,5,6,7,8,9,10,11,13a,14,14a,15,16,16a-hexadecahydrocyclopropa[e]pyrrolo[1,2-a][1,4]diazacyclopentadecin-6-yl)carbamate] | 35 to 620 | 35 to 620 |  |
| COc1ccc2c(O[C@@H]3C[C@H]4C(=O)N[C@]5(C(=O)NS(=O)(=O)C6CC6)C[C@H]5/C=C\CC[C@H](C)C[C@@H](C)[C@H](NC(=O)OC(C)(C)C)C(=O)N4C3)nccc2c1 [Compound 1206, tert-butyl ((2R,6S,7R,9S,13aS,14aR,16aS,Z)-14a-((cyclopropylsulfonyl)carbamoyl)-2-((6-methoxyisoquinolin-1-yl)oxy)-7,9-dimethyl-5,16-dioxo-1,2,3,5,6,7,8,9,10,11,13a,14,14a,15,16,16a-hexadecahydrocyclopropa[e]pyrrolo[1,2-a][1,4]diazacyclopentadecin-6-yl)carbamate] | 1.01 to 5 | 1.01 to 5 |  |
| COc1ccc2c(O[C@@H]3C[C@H]4C(=O)N[C@]5(C(=O)NS(=O)(=O)C6CC6)C[C@H]5/C=C\CC[C@@H](C)C[C@@H](C)[C@H](NC(=O)OC(C)(C)C(F)(F)F)C(=O)N4C3)nc(-c3ccc(OC(C)C)nc3)cc2c1 [Compound 5215, 1,1,1-trifluoro-2-methylpropan-2-yl((2R,6S,7R,9R,13aS,14aR,16aS,Z)-14a-((cyclopropylsulfonyl)carbamoyl)-2-((3-(6-isopropoxypyridin-3-yl)-6-methoxyisoquinolin-1-yl)oxy)-7,9-dimethyl-5,16-dioxo-1,2,3,5,6,7,8,9,10,11,13a,14,14a,15,16,16a-hexadecahydrocyclopropa[e]pyrrolo[1,2-a][1,4]diazacyclopentadecin-6-yl)carbamate] | < 5.46 | < 5.46 |  |
| COc1cnc(O[C@@H]2C[C@H]3C(=O)N[C@]4(C(=O)NS(=O)(=O)C5(F)CC5)C[C@H]4/C=C\CC[C@@H](C)C[C@@H](C)[C@H](NC(=O)OC(C)(C)C(F)(F)F)C(=O)N3C2)c2cccc(Cl)c12 [Compound 30] |  |  | EC50 ([1]; GETYPE1A, HCV genotype 1a replicon luciferase assay, range class, read-out: LE_1a (EC50, range)): < 5.46 nM; EC50 ([2]; GETYPE1B, HCV genotype 1b replicon luciferase assay, range class, read-out: LE_1b (EC50, range)): < 5.46 nM |
| CC[C@@H]1C[C@H](C)CC/C=C\[C@@H]2C[C@@]2(C(=O)NS(=O)(=O)C2CC2)NC(=O)[C@@H]2C[C@@H](Oc3nc4cc(OC)ccc4nc3Cl)CN2C(=O)[C@H]1NC(=O)OC(C)(C)C [Compound 4270, tert-butyl ((2R,6S,7R,9R,13aS,14aR,16aS,Z)-2-((3-chloro-7-methoxyquinoxalin-2-yl)oxy)-14a-((cyclopropylsulfonyl)carbamoyl)-7-ethyl-9-methyl-5,16-dioxo-1,2,3,5,6,7,8,9,10,11,13a,14,14a,15,16,16a-hexadecahydrocyclopropa[e]pyrrolo[1,2-a][1,4]diazacyclopentadecin-6-yl)carbamate] | 1.01 to 5 | 0.1 to 0.5 |  |
| COCCOc1cnc(O[C@@H]2C[C@H]3C(=O)N[C@]4(C(=O)NS(=O)(=O)C5CC5)C[C@H]4/C=C\CC[C@@H](C)C[C@@H](C)[C@H](NC(=O)OC4COC4)C(=O)N3C2)c2ccc(OC)cc12 [Compound 1159, oxetan-3-yl ((2R,6S,7R,9R,13aS,14aR,16aS,Z)-14a-((cyclopropylsulfonyl)carbamoyl)-2-((6-methoxy-4-(2-methoxyethoxyl)isoquinolin-1-yl)oxy)-7,9-dimethyl-5,16-dioxo-1,2,3,5,6,7,8,9,10,11,13a,14,14a,15,16,16a-hexadecahydrocyclopropa[e]pyrrolo[1,2-a][1,4]diazacyclopentadecin-6-yl)carbamate] |  |  | EC50 [1, 5]: 4.82 to 103 nM; EC50 [2, 6]: 4.82 to 103 nM |
| CC[C@@H]1C[C@H](C)CC/C=C\[C@@H]2C[C@@]2(C(=O)NS(=O)(=O)C2CC2)NC(=O)[C@@H]2C[C@@H](Oc3nccc4cc(OC)ccc34)CN2C(=O)[C@H]1NC(=O)OC(C)(C)C(F)(F)F [Compound 4006, 1,1,1-trifluoro-2-methylpropan-2-yl (2R,6S,7R,9R,13aS,14aR,16aS,Z)-14a-(cyclopropylsulfonylcarbamoyl)-7-ethyl-2-(6-methoxyisoquinolin-1-yloxy)-9-methyl-5,16-dioxo-1,2,3,5,6,7,8,9,10,11,13a,14,14a,15,16,16a-hexadecahydrocyclopropa[e]pyrrolo[1,2-a][1,4]diazacyclopentadecin-6-ylcarbamate] | < 5.46 | < 5.46 |  |
| COCCOc1cnc(O[C@@H]2C[C@H]3C(=O)N[C@]4(C(=O)NS(=O)(=O)C5(C)CC5)C[C@H]4/C=C\CC[C@@H](C)C[C@@H](C)[C@H](NC(=O)OC4COC4)C(=O)N3C2)c2ccc(OC)cc12 [Compound 1157, oxetan-3-yl ((2R,6S,7R,9R,13aS,14aR,16aS,Z)-2-((6-methoxy-4-(2-methoxyethoxyl)isoquinolin-1-yl)oxy)-7,9-dimethyl-14a-(((1-methylcyclopropyl)sulfonyl)carbamoyl)-5,16-dioxo-1,2,3,5,6,7,8,9,10,11,13a,14,14a,15,16,16a-hexadecahydrocyclopropa[e]pyrrolo[1,2-a][1,4]diazacyclopentadecin-6-yl)carbamate] |  |  | EC50 [1, 5]: 4.82 to 103 nM; EC50 [2, 6]: 4.82 to 103 nM |
| CC(C)n1nc(O[C@@H]2C[C@H]3C(=O)N[C@]4(C(=O)NS(=O)(=O)C5(C)CC5)C[C@H]4/C=C\CC[C@@H](C)C[C@@H](C)[C@H](NC(=O)OC(C)(C)C(C)(F)F)C(=O)N3C2)c2ccccc2c1=O [Compound 1016, 3,3-difluoro-2-methylbutan-2-yl((2R,6S,7R,9R,13aS,14aR,16aS,Z)-2-((3-isopropyl-4-oxo-3,4-dihydrophthalazin-1-yl)oxy)-7,9-dimethyl-14a-(((1-methylcyclopropyl)sulfonyl)carbamoyl)-5,16-dioxo-1,2,3,5,6,7,8,9,10,11,13a,14,14a,15,16,16a-hexadecahydrocyclopropa[e]pyrrolo[1,2-a][1,4]diazacyclopentadecin-6-yl)carbamate] |  |  | EC50 [1, 5]: 4.82 to 103 nM; EC50 [2, 6]: 4.82 to 103 nM |
| COc1cc2ccnc(O[C@@H]3C[C@H]4C(=O)N[C@]5(C(=O)NS(=O)(=O)C6(CF)CC6)C[C@H]5/C=C\CC[C@@H](C)C[C@@H](C)[C@H](NC(=O)OC5(C(F)(F)F)CCCCO5)C(=O)N4C3)c2cc1F (some centres unmarked) [Compound 1190] |  |  | EC50 [1, 7]: 1.66 nM; EC50 [1, 8]: 1.01 to 5 nM; EC50 [2, 9]: 1.12 nM; EC50 [2, 10]: 1.01 to 5 nM |
| COc1nnc(O[C@@H]2C[C@H]3C(=O)N[C@]4(C(=O)NS(=O)(=O)C5(C)CC5)C[C@H]4/C=C\CC[C@H](C)C[C@@H](C)[C@H](NC(=O)O[C@@H]4C[C@@H]5C[C@@H]5C4)C(=O)N3C2)c2ccccc12 [Compound 5013, (1R,3r,5S)-bicyclo[3.1.0]hexan-3-yl((2R,6S,7R,9S,13aS,14aR,16aS,Z)-2-((4-methoxyphthalazin-1-yl)oxy)-7,9-dimethyl-14a-(((1-methylcyclopropyl)sulfonyl)carbamoyl)-5,16-dioxo-1,2,3,5,6,7,8,9,10,11,13a,14,14a,15,16,16a-hexadecahydrocyclopropa[e]pyrrolo[1,2-a][1,4]diazacyclopentadecin-6-yl)carbamate] | < 5.46 | < 5.46 |  |
| COc1cc2ccnc(O[C@@H]3C[C@H]4C(=O)N[C@]5(C(=O)NS(=O)(=O)C6(CF)CC6)C[C@H]5/C=C\CC[C@@H](C)C[C@@H](C)[C@H](NC(=O)OC(C)(C)C(F)(F)F)C(=O)N4C3)c2cc1F [Compound 1185] |  |  | EC50 [1, 7]: 2.91 nM; EC50 [1, 8]: 1.01 to 5 nM; EC50 [2, 9]: 0.83 nM; EC50 [2, 10]: 0.51 to 1 nM |
| C=C1C=Cc2c(O[C@@H]3C[C@H]4C(=O)N[C@]5(C(=O)NS(=O)(=O)C6CC6)C[C@H]5/C=C\CC[C@@H](C)C[C@@H](CC)[C@H](NC(=O)OC(C)(C)C)C(=O)N4C3)ncc(OC)c2C1 [Compound 4007] | < 5.46 | < 5.46 |  |
| CCOc1nnc(O[C@@H]2C[C@H]3C(=O)N[C@]4(C(=O)NS(=O)(=O)C5CC5)C[C@H]4/C=C\CC[C@@H](C)C[C@@H](C)[C@H](NC(=O)OC(C)(C)C)C(=O)N3C2)c2ccccc12 [Compound 5035, tert-butyl ((2R,6S,7R,9R,13aS,14aR,16aS,Z)-14a-((cyclopropylsulfonyl)carbamoyl)-2-((4-ethoxyphthalazin-1-yl)oxy)-7,9-dimethyl-5,16-dioxo-1,2,3,5,6,7,8,9,10,11,13a,14,14a,15,16,16a-hexadecahydrocyclopropa[e]pyrrolo[1,2-a][1,4]diazacyclopentadecin-6-yl)carbamate] | < 5.46 | < 5.46 |  |
